# From patent US6335339B1, “Triazine antiviral compounds” (Scriptgen Pharmaceuticals, Inc., priority 1998, dated 2002)
# Key:
# HBV εRNA = assay: εRNA/oligonucleotide hybridization inhibition assay with rRNA competitor; assay type: binding, Hepatitis B virus; details: for IC50: radiolabeled εRNA, 60-fold excess rRNA competitor; for Specificity: ratio RRE+rRNA IC50/εRNA+rRNA IC50, max = inactive in RRE assay
# Text: One assay used in determining the activity of the compounds of the present invention is disclosed in copending U.S. patent application Ser. No. 08/709,342, filed Sep. 6, 1996, the disclosure of which is hereby incorporated herein by reference in its entirety. The assay detects the interaction between target RNA molecule and a test ligand by measuring the ligand's ability to inhibit hybridization between the RNA and a specific complementary oligonucleotide. In one embodiment, the target RNA is radiolabelled and the oligonucleotide is labeled with biotin; in this case, the extent of hybridization is determined by measuring the amount of radiolabeled RNA detected with a streptavidin/biotin-based capture system.
# Concentrations of test compounds of between about 0.1 μM and about 200 μM are assayed for inhibition using radiolabeled εRNA in the absence or presence of a large excess of an unlabeled non-specific RNA competitor (such as, e.g., ribosomal RNA, rRNA). Compounds that bind εRNA non-specifically are competitively displaced by the rRNA, resulting in reduced or no inhibition of hybridization between the radiolabeled εRNA and the biotinylated oligonucleotide. Conversely, the inhibitory activity of compounds that specifically bind εRNA is not affected by the presence of the competitor rRNA.
# The high throughput assays were performed in 96-well plates containing eighty drugs (5 μl, 60 μg/ml in DMSO) distributed one per well in columns 2-6 and 8-12 of the 8×12 96-well array. The remaining 16 wells in columns 1 and 7 were filled with 5 μl DMSO to serve as the control reactions. 45 μl of reaction mixture containing buffer, salts and radiolabeled target RNA were delivered on each well of the compound-containing plates to yield a 50 μl mixture containing 50 mM Tris-HCl, pH 7.5, 200 mM KCl, 5 mM MgCl2, 5 mM DTT, 6 μg/ml test compound, and 25 nM [^32 P]-labeled εRNA. The reaction was started by addition of the biotinylated oligonucleotide, 262.104 A (5 μl) to a final concentration of 100 nM. The reaction was incubated at 25° C. for 60 minutes, and then 5 μl of 0.3 mg/ml SAAP (streptavidin alkaline phosphatase conjugate, Pierce, Rockford, Ill.) was added. The reaction was incubated for an additional 30 minutes at 25° C. and filtered through 96-well format HATF nitrocellulose filters (Millipore, Bedford, Mass.) using a multiscreen vacuum manifold (Millipore, Bedford, Mass.). Subsequently, 300 μl of wash buffer (50 mM Tris-HCl, pH 7.5, 200 mM KCl) was filtered through to wash the filters. The filters were dried and supplemented with 20 μl scintillation fluid (Super Mix, Wallac Oy, Turku, Finland). The amount of hybrids formed was determined by scintillation counting of the radiolabeled εRNA retained on the filters.
# The inhibitory effect of a test compound (expressed as percentage of inhibition, % Inh.) was calculated using the following formula: […]
# where Ro is the average retention of hybrids in the 16 identical control reactions in columns 1 and 7 and Rx is the hybrids retained in the presence of a test drug, x.
# (§1) Biotinylated oligonucleotides 262.104 A (5′-biotin-TTAGGCACAGCTTGGAGGCTTGAACAGTG-3′) and 208.92 A (5′-biotin-CGTCATTGACGCTGCGCCCA-3′) were synthetically prepared (Oligos Etc., Willsonville, Oreg.). These oligonucleotides are complementary to regions of the εRNA and RRE RNA targets, respectively.
# A plasmid containing the target sequence following the bacteriophage SP6 promoter was used as a template for the synthesis of radiolabeled εRNA using [α^32 P]-UTP and SP6 RNA polymerase as described by the suppliers, e.g., Ambion, Austin, Tex., and by methods well known to those of ordinary skill in the art.
# Compounds that inhibited the primary screening assay described above were individually titrated in the same assay at concentrations between 0.1 μM and 200 μM in the absence and presence of 60-fold excess rRNA as a non-specific competitor. […]
# HIV derived RRE RNA = assay: heterologous hybridization inhibition assay with RRE RNA; assay type: binding; details: radiolabeled RRE RNA, rRNA competitor
# Text: Specificity is further tested in a third assay in which the radiolabeled RNA is the HIV derived RRE RNA and the biotinylated oligonucleotide is complementary to RRE. Compounds with high specific activity for εRNA are not expected to be inhibitory in the RRE RNA based assay. The specificity of the ligand for εRNA is expressed as the ratio between the IC50 value obtained with the specific target RNA and the IC50 value obtained with a heterologous target (RRE RNA), both in the presence of competitor RNA.
# as §1
# Compounds that inhibited the primary screening assay described above were individually titrated in the same assay at concentrations between 0.1 μM and 200 μM in the absence and presence of 60-fold excess rRNA as a non-specific competitor. A third titration was performed in a heterologous assay using radiolabeled RRE RNA as the target and the complementary biotinylated oligonucleotide 208.92 A. From these three assays, the IC50 values and specificity for each compound was calculated.
# IC50 values using rRNA competitor (from Example 1) and radiolabeled RRE RNA are shown in Table 1 for the following ligands. […] Specificity is calculated as the ratio of RRE+rRNA IC50/εRNA+rRNA IC50.
Structure (SMILES),IC50 (HBV εRNA),Specificity (HBV εRNA),RRE + rRNA IC50 (μM) (HIV derived RRE RNA),IC50 (HIV derived RRE RNA)
CCCCN(CCCC)c1nc(N/N=C/c2c3ccccc3cc3ccccc23)nc(Nc2ccc([N+](=O)[O-])cc2)n1 [Compound 55],100 µM,max.,inactive,
O=[N+]([O-])c1ccc(Nc2nc(NN=Cc3ccc(Cl)c(Cl)c3)nc(N3CCCCC3)n2)cc1 [Compound 57],50.1 µM,max.,inactive,
COc1ccc([N+](=O)[O-])cc1C=NNc1nc(Nc2ccccc2)nc(N2CCCCC2)n1 [Compound 143],446 µM,0.5,,223 µM
O=[N+]([O-])c1ccc(Nc2nc(NN=Cc3ccc(-c4ccc([N+](=O)[O-])cc4)o3)nc(N3CCOCC3)n2)cc1 [Compound 69],70 µM,max.,inactive,
C(=NNc1nc(Nc2ccccc2)nc(N2CCCC2)n1)c1c[nH]c2ccccc12 [Compound 89],12.5 µM,6.0,,75.3 µM
CCCCN(CCCC)c1nc(NN=Cc2cc3c(cc2Br)OCO3)nc(Nc2ccc([N+](=O)[O-])cc2)n1 [Compound 114],40 µM,5.5,,220 µM
O=[N+]([O-])c1ccc(Nc2nc(NN=Cc3ccccc3)nc(N3CCOCC3)n2)cc1 [Compound 110],20 µM,4.0,,79.9 µM
O=[N+]([O-])c1ccc(Nc2nc(NN=Cc3c4ccccc4cc4ccccc34)nc(N3CCCCC3)n2)cc1 [Compound 37],30.1 µM,max.,inactive,
CCCCN(CCCC)c1nc(NN=Cc2cc(Br)cc(Br)c2OC)nc(Nc2ccc([N+](=O)[O-])cc2)n1 [Compound 72],120 µM,max.,inactive,
CCCCN(CCCC)c1nc(NN=Cc2ccc(C=NNc3nc(Nc4ccc([N+](=O)[O-])cc4)nc(N(CCCC)CCCC)n3)cc2)nc(Nc2ccc([N+](=O)[O-])cc2)n1 [Compound 154],1180 µM,0.3,,300 µM
CCN(CC)c1nc(NN=Cc2ccncc2)nc(Nc2ccc([N+](=O)[O-])cc2)n1 [Compound 115],75.1 µM,1.7,,130 µM
Cc1ccc(Nc2nc(NN=Cc3ccc(O)cc3)nc(Nc3ccccc3)n2)c(C)c1 [Compound 81],120 µM,max.,inactive,
Cc1ccccc1Nc1nc(NN=Cc2ccc(-c3ccc([N+](=O)[O-])cc3)o2)nc(Nc2ccc([N+](=O)[O-])cc2)n1 [Compound 112],25 µM,30.0,,751 µM
O=[N+]([O-])c1ccc(Nc2nc(NN=Cc3cccc(Oc4ccc([N+](=O)[O-])cc4[N+](=O)[O-])c3)nc(N3CCCCCC3)n2)cc1 [Compound 116],20 µM,1.3,,25.1 µM
Cc1[nH]c2ccccc2c1C=NNc1nc(NCc2ccccc2)nc(N2CCOCC2)n1 [Compound 142],226 µM,5.0,,1130 µM
Nc1cccc(Nc2nc(Nc3cccc(N)c3)nc(N(c3ccccc3)c3ccccc3)n2)c1 [Compound 32],32.6 µM,max.,inactive,
COc1ccc(Nc2nc(NN=Cc3c[nH]c4ccccc34)nc(Nc3ccccc3)n2)cc1 [Compound 36],28.9 µM,53.8,,1550 µM

Structure (SMILES),IC50 (HBV εRNA),Specificity (HBV εRNA),RRE + rRNA IC50 (μM) (HIV derived RRE RNA),IC50 (HIV derived RRE RNA)
Fc1ccc(Nc2nc(Nc3cccc(C(F)(F)F)c3)nc(N3CCOCC3)n2)cc1 [Compound 71],99.9 µM,max.,inactive,
O=[N+]([O-])c1ccc(Nc2nc(NN=CC(Br)=Cc3ccccc3)nc(Nc3ccccc3)n2)cc1 [Compound 17],15.1 µM,max.,inactive,
O=C1Nc2ccccc2C1=NNc1nc(Nc2ccc([N+](=O)[O-])cc2)nc(N2CCCCC2)n1 [Compound 153],500 µM,1.0,,500 µM
COc1ccc(C=NNc2nc(Nc3ccccc3)nc(Nc3ccc(C)cc3C)n2)cc1 [Compound 126],60.1 µM,8.3,,500 µM
Clc1ccccc1C=NNc1nc(Nc2ccccc2)nc(N2CCCC2)n1 [Compound 127],80 µM,1.0,,80 µM
O=[N+]([O-])c1ccc(Nc2nc(NN=Cc3ccc(-c4ccc([N+](=O)[O-])cc4)o3)nc(N3CCCC3)n2)cc1 [Compound 47],25 µM,max.,inactive,
CCCCN(CCCC)c1nc(N/N=C/C(C)=C/c2ccccc2)nc(Nc2ccc([N+](=O)[O-])cc2)n1 [Compound 31],30 µM,max.,inactive,
O=[N+]([O-])c1ccc(Nc2nc(NN=Cc3cc(I)ccc3O)nc(N3CCCCC3)n2)cc1 [Compound 108],16.1 µM,2.5,,40 µM
O=[N+]([O-])c1ccc(Nc2nc(NN=Cc3c(O)ccc4ccccc34)nc(N3CCOCC3)n2)cc1 [Compound 96],15 µM,5.0,,75 µM
O=[N+]([O-])c1ccc(Nc2nc(NN=Cc3cccc(F)c3)nc(N3CCCCCC3)n2)cc1 [Compound 78],133 µM,max.,inactive,
O=[N+]([O-])c1ccc(Nc2nc(NN=Cc3ccccc3F)nc(N3CCCCCC3)n2)cc1 [Compound 48],30 µM,max.,inactive,
CC(=NNc1nc(Nc2ccc([N+](=O)[O-])cc2)nc(N2CCOCC2)n1)c1ccc([N+](=O)[O-])cc1 [Compound 118],25 µM,2.0,,50.1 µM
O=[N+]([O-])c1ccc(Nc2nc(NN=Cc3ccc(O)cc3)nc(N3CCCCC3)n2)cc1 [Compound 111],23 µM,20.0,,460 µM
O=C1Nc2ccccc2C1=NNc1nc(Nc2ccc([N+](=O)[O-])cc2)nc(N2CCOCC2)n1 [Compound 130],32.9 µM,12.2,,400 µM
O=[N+]([O-])c1ccc(Nc2nc(NN=Cc3cc(Br)ccc3O)nc(N3CCCCCC3)n2)cc1 [Compound 90],15 µM,3.0,,44.9 µM
O=[N+]([O-])c1ccc(Nc2nc(NN=Cc3ccccc3I)nc(N3CCCCC3)n2)cc1 [Compound 124],29.9 µM,10.0,,300 µM
